Some test systems named below: NCI-H23 lung; SNB-75 CNS; BT-549 breast; DU-145 prostate; RPMI-8226 leukemia; HOP-62 NSCLC; SR leukemia; HCC-2998 colon.
Common to all, as to assay: DTP human tumour cell line panel, 48 h

Data on 9 compounds can be found in PubChem BioAssay (NCI).

As usually defined, the GI50 is the concentration at which growth is held to half of that of the control. The TGI is the concentration giving total growth inhibition.

“And” between values parts separate entries of the source, which are not always exact repeats. Equal values may be shown once.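 Growth conditions: 96-well plates. Treatment: test compound, 48 hours, 5 concentrations. Analysis: linear interpolation between bracketing concentrations; unreached endpoints set to highest concentration. GI50: concentration for 50% inhibition of growth. The concentration for full growth arrest is given as TGI.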

`O=C1C=CC(=O)N1c1cccc(N2C(=O)C=CC2=O)c1`: the GI50 in the test with NCI-H23 lung was 2.54 µM; in the test on SNB-75 CNS it was 4.71 µM; in the test on BT-549 breast, 7.51 µM; in the test on DU-145 prostate it was 10.9 µM; in the test on RPMI-8226 leukemia, 2.94 µM; in the test with HOP-62 NSCLC, 16.8 µM. Also, the GI50 with SR leukemia was 3.07 µM; with HCC-2998 colon, 12.9 µM. In addition, the concentration for total growth inhibition (TGI) with NCI-H23 lung was 7.07 µM; in the test on SNB-75 CNS, 18.3 µM; with BT-549 breast, 20.2 µM; with DU-145 prostate, 22.8 µM; in the test with RPMI-8226 leukemia, 7.19 µM; in the test with HOP-62 NSCLC, 33.5 µM. For the same compound, the TGI with SR leukemia is > 100 µM; with HCC-2998 colon it was 26.4 µM.

Consider `CCOC(=O)C#Cc1c(C(=O)OCC)nnn1Cc1ccc([N+](=O)[O-])cc1`, for which the GI50 was 8.2 µM with NCI-H23 lung; 6.29 µM in the test with SNB-75 CNS; 5.07 µM in the test with BT-549 breast; 3.88 µM in the test with DU-145 prostate; 2.8 µM in the test with RPMI-8226 leukemia; 17.3 µM in the test with HOP-62 NSCLC. The results for the GI50 in the test on SR leukemia and with HCC-2998 colon were 1.15 µM and 18.3 µM, respectively. Also, the TGI in the test on NCI-H23 lung was determined as 26.9 µM; in the test with SNB-75 CNS it was 20.5 µM; with BT-549 breast, 17 µM; in the test on DU-145 prostate it was 14.2 µM; in the test with RPMI-8226 leukemia it was 7.37 µM; in the test on HOP-62 NSCLC, 31.6 µM. The TGI came to 4.4 µM with SR leukemia and 32.2 µM with HCC-2998 colon.

As for `C=C1C(=O)O[C@H]2[C@H]1CC/C(COC(=O)C(C)c1ccc(CC(C)C)cc1)=C\CC[C@@]1(C)O[C@@H]21` (some centres not stated), the GI50 with NCI-H23 lung is 1.77 µM; in the test with SNB-75 CNS, 1.68 µM; in the test on BT-549 breast it was 0.533 µM; with DU-145 prostate, 1.59 µM; with RPMI-8226 leukemia, 0.278 µM; with HOP-62 NSCLC, 1.88 µM. Besides, the GI50 in the test on SR leukemia is 0.287 µM; in the test with HCC-2998 colon, 1.95 µM. Moreover, the TGI in the test with NCI-H23 lung amounted to 3.92 µM; in the test on SNB-75 CNS it was 3.16 µM; in the test on BT-549 breast it was 1.89 µM; in the test with DU-145 prostate, 2.95 µM; with RPMI-8226 leukemia, 1.19 µM; in the test with HOP-62 NSCLC, 4.26 µM. The TGI turned out to be 1.86 µM in the test on SR leukemia and 3.74 µM with HCC-2998 colon.

For the compound `CC(C)=CCC/C(C)=C\CCC1(C)OC(=O)C2CC21` (configuration not stated), the TGI in the test with NCI-H23 lung was > 100 µM; with SNB-75 CNS, > 100 µM; in the test with BT-549 breast, > 100 µM; with DU-145 prostate it was > 100 µM; in the test on RPMI-8226 leukemia it was 68.1 µM and 44.2 µM; in the test with HOP-62 NSCLC it was > 100 µM. Besides, the TGI is > 100 µM and 37.2 µM with SR leukemia; > 100 µM with HCC-2998 colon. Also, in the test on SR leukemia, the GI50 is 24.3 µM and 6.4 µM.

For `OCCNc1nc(Nc2ccc(Cl)c(Cl)c2)nc2ccccc12`, the GI50 in the test on NCI-H23 lung was 10.3 µM; in the test with SNB-75 CNS, 4.79 µM; in the test on BT-549 breast it was 16 µM; in the test on DU-145 prostate it was 11 µM; in the test on RPMI-8226 leukemia, 3.74 µM; with HOP-62 NSCLC, 5.39 µM. Moreover, the GI50 in the test on SR leukemia is 2.65 µM; in the test on HCC-2998 colon, 2.52 µM. Also, the TGI with NCI-H23 lung was 25.1 µM; with SNB-75 CNS it was 18.7 µM; with BT-549 breast, 29.8 µM; in the test with DU-145 prostate it was 22.9 µM; in the test with RPMI-8226 leukemia it was 22.1 µM; with HOP-62 NSCLC, 19.5 µM. Also, the TGI in the test with SR leukemia amounted to 9.67 µM; with HCC-2998 colon, 6.85 µM.

With `CCCN(CCC)c1ccc(/C=N/NC(=O)c2cccnc2)c(OC)c1`, the GI50 was 26.1 µM in the test on NCI-H23 lung; 23.7 µM with SNB-75 CNS; 28.4 µM in the test on BT-549 breast; 27.8 µM with DU-145 prostate; 34.5 µM with RPMI-8226 leukemia; 31.3 µM with HOP-62 NSCLC. In addition, the GI50 in the test on SR leukemia is 17.1 µM; in the test on HCC-2998 colon, 26.6 µM. Also, the TGI with NCI-H23 lung is > 100 µM; in the test with SNB-75 CNS it was 80.4 µM; in the test on BT-549 breast, 84.8 µM; with DU-145 prostate it was 94.8 µM; in the test on RPMI-8226 leukemia, > 100 µM; in the test on HOP-62 NSCLC, > 100 µM. The TGI worked out at 59.6 µM with SR leukemia and 98.4 µM in the test on HCC-2998 colon.

In the case of `CCc1ccc(C(=Nc2ccc(N(C)C(=O)CN3CCN(C)CC3)cc2)c2c(O)[nH]c3ccc(C(=O)OC)cc23)cc1`, the GI50 was 0.417 µM in the test with NCI-H23 lung; 0.17 µM with SNB-75 CNS; 1.32 µM in the test on BT-549 breast; 0.528 µM in the test on DU-145 prostate; 0.424 µM in the test on RPMI-8226 leukemia; 0.51 µM in the test on HOP-62 NSCLC. Besides, the GI50 was 0.164 µM in the test on SR leukemia and 0.587 µM in the test with HCC-2998 colon. Besides, the TGI with NCI-H23 lung came out at 2.03 µM; in the test with SNB-75 CNS, 1.52 µM; in the test on BT-549 breast, 2.65 µM; in the test with DU-145 prostate it was 1.84 µM; in the test on RPMI-8226 leukemia, 1.67 µM; in the test on HOP-62 NSCLC, 2.17 µM. The TGI in the test on SR leukemia amounted to 0.835 µM; in the test with HCC-2998 colon, 1.95 µM.

Take `Fc1cccc(-n2ccc(-c3ccccc3)nc2=S)c1`: the GI50 in the test with NCI-H23 lung was 15 µM; in the test on SNB-75 CNS, 26.7 µM; with BT-549 breast it was 10.4 µM; in the test on DU-145 prostate, 20.3 µM; in the test on RPMI-8226 leukemia, 47.1 µM; in the test with HOP-62 NSCLC it was > 63.4 µM. The GI50 was 53.6 µM in the test on SR leukemia and 18.1 µM in the test with HCC-2998 colon. Also, the TGI is 33.2 µM with NCI-H23 lung; > 70.6 µM in the test with SNB-75 CNS; 26 µM with BT-549 breast; 66.7 µM in the test on DU-145 prostate; > 100 µM in the test with RPMI-8226 leukemia; > 100 µM with HOP-62 NSCLC. Moreover, the TGI in the test on SR leukemia is > 100 µM; with HCC-2998 colon, 33.4 µM.

In the case of `CC(=[N-])N1CCC[C@@H](Nc2c3ccccc3nc3ccccc23)C1.[Cl][Pt].[NH-]CCC[NH-]`, the GI50 with NCI-H23 lung was 0.198 µM; in the test on SNB-75 CNS it was 2.72 µM; in the test on BT-549 breast, 2.9 µM; in the test on DU-145 prostate, 0.0326 µM; in the test with RPMI-8226 leukemia, 2.42 µM; in the test on HOP-62 NSCLC, 1.72 µM. Also, the GI50 in the test on SR leukemia was 0.445 µM; in the test with HCC-2998 colon, 1.7 µM. The TGI in the test with NCI-H23 lung was 2.75 µM; with SNB-75 CNS, 10.1 µM; in the test on BT-549 breast, 64.7 µM; in the test with DU-145 prostate, > 100 µM; in the test with RPMI-8226 leukemia it was > 100 µM; in the test with HOP-62 NSCLC it was > 100 µM. Besides, the values for the TGI with SR leukemia and with HCC-2998 colon were > 100 µM and 9.17 µM, respectively.
